The record followed here is patent US20110306639A1, “HYDROCARBYLIDENE NITROHYDROZINECARBOXIMIDAMIDES AND A METHOD FOR MAKING THE SAME, AS WELL AS THEIR USES AS AN INSECTICIDE” (priority 2008, published 2011).

Where two headings read alike, the source gives them in different places.

The subject of series [1] is myzus persicae.
In series [2] the test system is Helicoverpa armigera.
In series [3] the test system is asparagus caterpillar.

In the case of `CCCCNC(=N[N+](=O)[O-])NN=Cc1ccccc1Cl` [Compound 91], in series [1] (in vivo), the “mortality(%) myzus persicae (600 μg/mL)” value is listed as 1.2%. Besides, the “mortality(%) Helicoverpa armigera (500 μg/mL)” value in series [2] (in vivo) was 0%. In series [3] (in vivo), the “mortality(%) asparagus caterpillar (500 μg/mL)” value worked out at 80%.
Consider `CCOc1ccc(C=NNC(=N[N+](=O)[O-])NC)cc1OC` [Compound 95], for which the “mortality(%) myzus persicae (600 μg/mL)” value in series [1] (in vivo) came to 58.0%. In series [2] (in vivo), the “mortality(%) Helicoverpa armigera (500 μg/mL)” value is recorded as 40%. Further, the “mortality(%) asparagus caterpillar (500 μg/mL)” value in series [3] (in vivo) is 80%.
For `CCCC=NNC(=N[N+](=O)[O-])NCCCC` [Compound 26], the “mortality(%) myzus persicae (600 μg/mL)” value in series [1] (in vivo) is listed as 65.3%. Moreover, the “mortality(%) Helicoverpa armigera (500 μg/mL)” value in series [2] (500 μg/mL, 48 hours) came to 20%. Also, the “mortality(%) asparagus caterpillar (500 μg/mL)” value in series [3] (in vivo) was 60%.
In the same order, the values of `CNC(=N[N+](=O)[O-])NN=CC(C)C` [Compound 1, 2-isobutylidene-N-methyl-N′-nitrohydrozinecarboximidamide] are 4.7%, 40% and 40%.
In the same order, the values of `C=CCNC(=N[N+](=O)[O-])NN=CCCCCCC` [Compound 47] are 23.7%, 0% and 0%.
Regarding `C=CCNC(=N[N+](=O)[O-])NN=CC=CC` [Compound 35], the “mortality(%) myzus persicae (600 μg/mL)” value in series [1] (in vivo) is 56.7%. In series [2] (500 μg/mL, 48 hours), the “mortality(%) Helicoverpa armigera (500 μg/mL)” value was determined as 20%. Further, the “mortality(%) asparagus caterpillar (500 μg/mL)” value in series [3] (in vivo) was 60%.
Turning to `CCCNC(=N[N+](=O)[O-])NN=Cc1ccccc1Cl` [Compound 90], the “mortality(%) myzus persicae (600 μg/mL)” value in series [1] (in vivo) is on record as 41.2%. In addition, the “mortality(%) Helicoverpa armigera (500 μg/mL)” value in series [2] (in vivo) amounted to 10%. Besides, in series [3] (in vivo), the “mortality(%) asparagus caterpillar (500 μg/mL)” value was determined as 50%.
For the molecule `O=[N+]([O-])N=C(NCc1ccccc1)NN=Cc1ccccc1Cl` [Compound 92], the “mortality(%) myzus persicae (600 μg/mL)” value in series [1] (in vivo) is 45.8%. For the same molecule, the “mortality(%) Helicoverpa armigera (500 μg/mL)” value in series [2] (in vivo) turned out to be 50%. For the same molecule, the “mortality(%) asparagus caterpillar (500 μg/mL)” value in series [3] (in vivo) is reported as 70%.
On to `C=CCNC(=N[N+](=O)[O-])NN=CC(C)C` [Compound 5], for which the “mortality(%) myzus persicae (600 μg/mL)” value in series [1] (in vivo) came out at 27.8%. Also, the “mortality(%) Helicoverpa armigera (500 μg/mL)” value in series [2] (500 μg/mL, 48 hours) was found to be 90%. In series [3] (in vivo), the “mortality(%) asparagus caterpillar (500 μg/mL)” value is 30%.
The matching figures for `CC=CC=NNC(=N[N+](=O)[O-])NCC` [Compound 32]: 48.0%, 0% and 0%.
On to `CCCC=NNC(=N[N+](=O)[O-])NCc1ccc(Cl)nc1` [Compound 30], for which the “mortality(%) myzus persicae (600 μg/mL)” value in series [1] (in vivo) is reported as 80.7%. For the same molecule, the “mortality(%) Helicoverpa armigera (500 μg/mL)” value in series [2] (in vivo) is 40%. Further, the “mortality(%) asparagus caterpillar (500 μg/mL)” value in series [3] (in vivo) is reported as 40%.
On to `CCCCCCC=NNC(=N[N+](=O)[O-])NCc1ccccc1` [Compound 49], for which the “mortality(%) myzus persicae (600 μg/mL)” value in series [1] (in vivo) amounted to 28.6%. The “mortality(%) Helicoverpa armigera (500 μg/mL)” value in series [2] (500 μg/mL, 48 hours) stood at 50%. In addition, in series [3] (in vivo), the “mortality(%) asparagus caterpillar (500 μg/mL)” value was 0%.
As for `CC(C)=CCCC(C)=CC=NNC(=N[N+](=O)[O-])NCc1ccc(Cl)nc1` [Compound 23], in series [1] (in vivo), the “mortality(%) myzus persicae (600 μg/mL)” value is listed as 19.8%. Also, the “mortality(%) Helicoverpa armigera (500 μg/mL)” value in series [2] (in vivo) is listed as 30%. The “mortality(%) asparagus caterpillar (500 μg/mL)” value in series [3] (in vivo) came out at 40%.
In the same order, the values of `CCNC(=N[N+](=O)[O-])NN=CC=C(C)CCC=C(C)C` [Compound 17] are 19.8%, 40% and 40%.
In the same order, the values of `C=CCNC(=N[N+](=O)[O-])NN=CC=C(C)CCC=C(C)C` [Compound 20] are 5.2%, 0% and 50%.
Turning to `CCC=NNC(=N[N+](=O)[O-])NCc1ccccc1` [Compound 14], the “mortality(%) myzus persicae (600 μg/mL)” value in series [1] (in vivo) turned out to be 18.8%. Also, in series [2] (500 μg/mL, 48 hours), the “mortality(%) Helicoverpa armigera (500 μg/mL)” value turned out to be 40%. The “mortality(%) asparagus caterpillar (500 μg/mL)” value in series [3] (in vivo) worked out at 30%.
With `C#CCNC(=N[N+](=O)[O-])NN=CC(C)C` [Compound 6], the “mortality(%) myzus persicae (600 μg/mL)” value in series [1] (in vivo) is given as 37.9%. Moreover, in series [2] (500 μg/mL, 48 hours), the “mortality(%) Helicoverpa armigera (500 μg/mL)” value is on record as 100%. Besides, in series [3] (in vivo), the “mortality(%) asparagus caterpillar (500 μg/mL)” value is reported as 60%.
In the case of `C=CCNC(=N[N+](=O)[O-])NN=Cc1ccc(F)cc1` [Compound 101], the “mortality(%) myzus persicae (600 μg/mL)” value in series [1] (in vivo) was determined as 17.7%. Further, the “mortality(%) Helicoverpa armigera (500 μg/mL)” value in series [2] (in vivo) is listed as 40%. The “mortality(%) asparagus caterpillar (500 μg/mL)” value in series [3] (in vivo) turned out to be 30%.
Consider `CC=CC=NNC(=N[N+](=O)[O-])NCc1ccc(Cl)nc1` [Compound 38], for which, in series [1] (in vivo), the “mortality(%) myzus persicae (600 μg/mL)” value is listed as 1.2%. Besides, in series [2] (in vivo), the “mortality(%) Helicoverpa armigera (500 μg/mL)” value is recorded as 30%. Moreover, the “mortality(%) asparagus caterpillar (500 μg/mL)” value in series [3] (in vivo) worked out at 0%.
On to `CCOc1ccc(C=NNC(=N[N+](=O)[O-])NCc2ccccc2)cc1OC` [Compound 98], for which the “mortality(%) myzus persicae (600 μg/mL)” value in series [1] (in vivo) is recorded as 13.3%. Also, in series [2] (in vivo), the “mortality(%) Helicoverpa armigera (500 μg/mL)” value was 40%. Moreover, the “mortality(%) asparagus caterpillar (500 μg/mL)” value in series [3] (in vivo) was 10%.
As to `CCNC(=N[N+](=O)[O-])NN=CC(C)C` [Compound 2], the “mortality(%) myzus persicae (600 μg/mL)” value in series [1] (in vivo) is listed as 53.6%. The “mortality(%) Helicoverpa armigera (500 μg/mL)” value in series [2] (500 μg/mL, 48 hours) amounted to 60%. The “mortality(%) asparagus caterpillar (500 μg/mL)” value in series [3] (in vivo) is reported as 50%.
With `CC(C)C=NNC(=N[N+](=O)[O-])NCc1ccc(Cl)nc1` [Compound 8], the “mortality(%) myzus persicae (600 μg/mL)” value in series [1] (in vivo) is 87.0%. Besides, the “mortality(%) Helicoverpa armigera (500 μg/mL)” value in series [2] (in vivo) is given as 60%. The “mortality(%) asparagus caterpillar (500 μg/mL)” value in series [3] (in vivo) was determined as 40%.
For `CCCCC=NNC(=N[N+](=O)[O-])NCCCC` [Compound 52], the “mortality(%) myzus persicae (600 μg/mL)” value in series [1] (in vivo) was 81.0%. Also, the “mortality(%) Helicoverpa armigera (500 μg/mL)” value in series [2] (500 μg/mL, 48 hours) worked out at 20%. In series [3] (in vivo), the “mortality(%) asparagus caterpillar (500 μg/mL)” value turned out to be 60%.
The matching figures for `C#CCNC(=N[N+](=O)[O-])NN=Cc1ccccc1OC` [Compound 77]: 4.2%, 30% and 50%.
The matching figures for `CCCCC=NNC(=N[N+](=O)[O-])NCCC` [Compound 51]: 13.3%, 30% and 10%.
Regarding `CCNC(=N[N+](=O)[O-])NN=Cc1ccc(N(C)C)cc1` [Compound 69], in series [1] (in vivo), the “mortality(%) myzus persicae (600 μg/mL)” value is reported as 90.6%. The “mortality(%) Helicoverpa armigera (500 μg/mL)” value in series [2] (in vivo) worked out at 30%. The “mortality(%) asparagus caterpillar (500 μg/mL)” value in series [3] (in vivo) stood at 80%.
In the case of `C=CCNC(=N[N+](=O)[O-])NN=Cc1ccc(OCC)c(OC)c1` [Compound 99], in series [1] (in vivo), the “mortality(%) myzus persicae (600 μg/mL)” value worked out at 45.8%. Moreover, the “mortality(%) Helicoverpa armigera (500 μg/mL)” value in series [2] (in vivo) is reported as 50%. For the same molecule, the “mortality(%) asparagus caterpillar (500 μg/mL)” value in series [3] (in vivo) is 30%.
As for `C#CCNC(=N[N+](=O)[O-])NN=CCCCC` [Compound 54], in series [1] (in vivo), the “mortality(%) myzus persicae (600 μg/mL)” value is reported as 47.6%. For the same molecule, the “mortality(%) Helicoverpa armigera (500 μg/mL)” value in series [2] (500 μg/mL, 48 hours) amounted to 40%. The “mortality(%) asparagus caterpillar (500 μg/mL)” value in series [3] (in vivo) is on record as 10%.
Take `Cc1ccc(C=NNC(=N[N+](=O)[O-])NCc2ccc(Cl)nc2)cc1` [Compound 107]: in series [1] (600 μg/mL), the “mortality(%) myzus persicae (600 μg/mL)” value was found to be 3.7%. The “mortality(%) Helicoverpa armigera (500 μg/mL)” value in series [2] (500 μg/mL, 48 hours) is 10%. Besides, the “mortality(%) asparagus caterpillar (500 μg/mL)” value in series [3] (500 μg/mL, 48 hours) came out at 20%.
